{
  "source": "paper PMC5896380",
  "about": "“Selective imaging of cathepsin L in breast cancer by fluorescent activity-based probes” (Chemical Science, 2018)",
  "key": {"[1]": {"target": "T1, cathepsin L (Homo sapiens, UniProt P07711)", "T1 construct": "made in house", "T1 sequence (P07711 114-333)": "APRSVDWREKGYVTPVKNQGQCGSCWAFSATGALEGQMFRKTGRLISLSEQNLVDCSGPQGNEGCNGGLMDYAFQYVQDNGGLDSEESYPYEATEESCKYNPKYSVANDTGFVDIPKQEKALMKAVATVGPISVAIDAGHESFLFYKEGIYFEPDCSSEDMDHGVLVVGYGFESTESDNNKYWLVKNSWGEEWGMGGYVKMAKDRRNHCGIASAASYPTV", "experiment": "kobs/I of activity-based probes, cathepsin L", "assay_type": "biochemical", "details": "Fig. 6A; pseudo-first order, probe at least 5-fold excess over cathepsin, 100 μM ACC substrate; pH 5.5, 37 °C; triplicate, SD below 20%", "protocol": "(§1) All kinetic experiments were performed using fMax (Molecular Devices) and CLARIOStar (BMG LABTECH) spectrofluorimeters operating in kinetic mode using 96-well plates. ACC-labeled substrates were screened using 355 nm and 460 nm wavelengths (excitation and emission, respectively). […] The buffer was prepared at room temperature and the enzyme kinetic studies were performed at 37 °C.\n(§2) For the kinetic studies, five recombinant human cathepsins (B, L, V, K and S) were expressed and purified and active site titrated using an E64 inhibitor. The kobs/I parameter was measured under pseudo-first order kinetic conditions, as described.[40] The cathepsin of interest was mixed with various concentrations of probe (at least 5-fold excess over cathepsin) and 100 μM ACC-fluorescence substrate. The experiments were repeated at least three times, and the results are presented as an average. The SDs were below 20%."}, "[2]": {"system": "cathepsins L and B in MDA-MB-231 cells", "experiment": "Cathepsin labeling in MDA-MB-231 cells by SDS-PAGE and western blotting", "assay_type": "cell-based, human", "details": "MDA-MB-231 cells", "protocol": "Low passage MDA-MB-231 cells were seeded on 12-well plates (200 000 cells per well per 1 mL of medium) and cultured in Dulbecco’s Modification of Eagle’s Medium (DMEM) supplemented with 10% fetal bovine serum, 2 mM of L-glutamine, 100 units per mL penicillin and 100 μg mL^–1 streptomycin. […] To control for non-specific binding, the cells were preincubated with E64d (25 μM) for 2 hours prior to probe addition. At various time points, the medium was aspirated and the cells were gently washed twice with 1 mL of Dulbecco’s Phosphate-Buffered Saline (DPBS) and then trypsinized, harvested and centrifuged for 10 min (500 × g). The supernatants were removed by aspiration and the pellets washed with 1 mL of DPBS and centrifuged (5 min, 500 × g). The supernatants were again removed and the pellets solubilized in 100 μL 1× SDS/DTT and then boiled for 5 min. Each sample was then cooled to room temperature and sonicated (Branson Sonifier 250, duty cycle: 50, output control: 5, cycles: 5) and then 30 μL was loaded on 4–12% Bis-Tris Plus gels and run for 30 min at 200 V with a SDS-PAGE Standards/Broad Range ladder. Proteins were transferred to a 0.2 μm nitrocellulose membrane for 1 hour at 10 V and then Ponceau staining was used to verify equal loading. Membranes were blocked with 2.5% BSA in Tris-buffered saline/0.1% v/v Tween 20 (TBS-T) for 1 hour at room temperature. Cathepsins L and B were detected by primary goat anti-hCathepsin L (R&D, AF952, 0.2 mg mL^–1, 1 : 2000) and goat anti-hCathepsin B (R&D, AF953, 0.2 mg mL^–1, 1 : 1000) antibodies, respectively, followed by incubation with a secondary antibody (IRDye® 800CW, LI-COR, donkey anti-goat, 1 : 10 000). The membranes were incubated with primary antibodies for 2 hours, and with (fluorescent) secondary antibodies for 30 min (both in TBS-T at room temperature). The fluorescence was read at 700 nm (Cyanine5; excitation 685 nm) and 800 nm (secondary antibody; excitation 785 nm) using an Odyssey fluorescence imaging system (LI-COR). The images were analyzed using Image Studio software."}, "[3]": {"target": "T2, cathepsin K (Homo sapiens, UniProt P43235)", "T2 construct": "made in house", "T2 sequence (P43235 115-329)": "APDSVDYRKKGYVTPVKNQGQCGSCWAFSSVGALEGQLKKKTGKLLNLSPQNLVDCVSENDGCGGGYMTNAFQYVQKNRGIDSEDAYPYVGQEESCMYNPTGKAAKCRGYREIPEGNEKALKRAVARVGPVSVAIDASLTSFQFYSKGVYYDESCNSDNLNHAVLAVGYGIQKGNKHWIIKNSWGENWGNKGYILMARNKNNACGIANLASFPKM", "experiment": "kobs/I of activity-based probes, cathepsin K", "assay_type": "biochemical", "details": "Fig. 6A; pseudo-first order, probe at least 5-fold excess over cathepsin, 100 μM ACC substrate; pH 5.5, 37 °C; triplicate, SD below 20%", "protocol": "as §1, §2"}},
  "data": [
    {"substance": "Cy5-6-ahx-His-DThr-Phe(F5)-Cys(Bzl)-AOMK [MP-cL3]", "values": [
      {"measurement": "kobs/I Cath-L", "setting": "[1]", "value": "322,000 M^-1s^-1"},
      {"measurement": "incubation time up to which only cathepsin L is labeled (no labeling of cathepsin B)", "setting": "[2]; 1 μM probe", "value": "up to 8 hours"},
      {"measurement": "incubation time after which probe labeling is detectable in cells", "setting": "[2]; 1 μM probe, 0–18 hours", "value": 1, "unit": "h"},
      {"measurement": "incubation time up to which only cathepsin L is labeled", "setting": "[2]; 5 μM probe, 2-16 hours", "value": "up to two"},
      {"measurement": "kobs/I Cath-K", "setting": "[3]", "value": "< 200", "unit": "M⁻¹ s⁻¹"}
    ]}
  ]
}
